# Reference: the METLIN SMRT retention time set (Domingo-Almenara et al. 2019)
# Assay: gradient 5% acetonitrile 3 min, to 50% in 2 min, to 85% in 15 min, held 3 min, 100 µL/min
# Details: column: Zorbax Extend-C18 2.1 x 50 mm; eluents: water / acetonitrile, 0.1% formic acid
# Outline: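 Pure standards were analyzed in mixtures of ~100 molecules using HPLC coupled to a quadrupole time-of-flight mass spectrometer, in both positive and negative ionization mode. Separation used a Zorbax Extend-C18 column (2.1 × 50 mm, 1.8 μm) at 100 μL/min, with water and acetonitrile each containing 0.1% formic acid. Dead and dwell volumes were 40 μL and 900 μL, and data were collected over 3 months. Retention time was read from computationally picked adduct peaks, each inspected manually.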
row,RP-LC retention time [s],SMILES
1,946,Cc1ccc(-n2c(N3CCCC(C(=O)NCc4ccccc4Cl)C3)nc3ccsc3c2=O)cc1 (stereo not drawn)
2,808,Cc1cccc(N(C)C(=O)Cn2nc3nc(N4CCCC(C)C4)ccn3c2=O)c1 (stereo not drawn)
3,764,CCC(C)NC(=O)Cn1nc2c3cc(-c4ccc(F)cc4)nn3ccn2c1=O (stereo not drawn)
4,753,CCn1ccc2c(cc(C(=O)Nc3ccc(C)cc3C)n2C)c1=O
5,956,Cc1ccc(-c2cn3c(CC(=O)N4CCCc5ccccc54)csc3n2)cc1C
6,573,CS(=O)(=O)N1CCCc2cc(C(=O)NCCN3CCOCC3)ccc21
7,818,Cc1ccc(N2CCN(C(=O)c3cc(C)n4nccc4n3)CC2)cc1
8,919,CCN(CC)c1nc2ccsc2c(=O)n1CCC(=O)N1CCN(c2ccccc2)CC1
9,741,Cc1cccc(C(=O)NC2CCN(c3cc(-c4cccs4)[nH]n3)C2)c1 (stereo not drawn)
10,961,CSc1cccc(N2C=C(C#N)S(=O)(=O)c3ccc(Cl)cc32)c1
11,759,Cc1ccc(-c2nnc(SCc3cc(=O)n4oc(C)cc4n3)o2)cc1
12,579,O=C(Cn1ccnc1)N1CCCCC1c1nncn1Cc1ccccc1 (stereo not drawn)
13,581,CCN1CCN(C(=O)CN2C(=O)COc3ccc(C(=O)N(CC)CC)cc32)CC1
14,666,Cc1nc2c(c(=O)n1CC(=O)NCCC1=CCCCC1)CCN(Cc1ccccc1)C2
15,836,COc1ccc(C(=O)Nc2cc(C(=O)O)ccc2N2CCN(c3ncccn3)CC2)cc1
16,708,Cc1cc2nn(CC(=O)N3CCOCC3)c(=O)n2c(-c2cccc(Cl)c2)n1
17,982,Cc1ccc(NC(=O)Cn2cnc3c(sc4nc(-c5ccccc5)ccc43)c2=O)c(F)c1
18,838,O=C(Cn1cnc2c(-c3ccc(Cl)cc3)csc2c1=O)N1CCCC1
19,1040,COc1ccccc1N1CCN(c2cc(SCC(=O)Nc3ccc(C)cc3C)ncn2)CC1

row,RP-LC retention time [s],SMILES
1,663,CNC(=O)C1CCCN(c2nc3ncn(CC(=O)Nc4ccccc4C(F)(F)F)c(=O)c3s2)C1 (stereo not drawn)
2,667,COc1ccccc1NC(=O)N1CCCC(Cn2cnc3cccnc32)C1 (stereo not drawn)
3,808,O=C(c1ccc(F)cc1)N1CCN(S(=O)(=O)c2cc3c4c(c2)CCC(=O)N4CCC3)CC1
4,905,COc1cccc(-n2ccc(=O)c(-c3nc(-c4cccc(F)c4)no3)n2)c1
5,630,Cc1cccc(-c2noc(Cn3ccnc3)n2)c1
6,935,CCCC(=O)Nc1nc(-c2ccc3c(c2)N(CCC)C(=O)CO3)cs1
7,711,CC(C)N1CCC2(CC1)N=C(c1ccc(Br)cc1)CC(c1cc(Cl)ccc1O)N2 (stereo not drawn)
8,1090,CC1CCN(c2nn(CC(=O)Nc3ccccc3F)c(=O)c3ccccc23)CC1
9,674,Cc1ccc(CNS(=O)(=O)c2cc(-c3[nH]ncc3C(=O)N3CCCC3)oc2C)o1
10,831,Cc1noc(-c2cc(=O)n(CC(=O)Nc3cccc(C#N)c3)c3ccccc23)n1
11,842,CCN1C(=O)COc2ccc(-c3noc(C4CC(=O)N(c5ccc(OC)cc5)C4)n3)cc21 (stereo not drawn)
12,903,Cc1nnsc1C(=O)N1CCN(c2nc3ccc(OC(F)(F)F)cc3s2)CC1
13,902,O=C(CCc1nc(N2CCCCC2)c2c(-c3ccc(F)cc3)noc2n1)N1CCOCC1
14,889,COc1ccccc1C(=O)Nc1nc(-c2ccc3c(c2)NC(=O)CO3)c(C)s1
15,580,Cc1noc(C)c1CN1CCC(NC(=O)c2ccc(F)cc2F)C1 (stereo not drawn)
16,617,CCc1cc(=O)n(CC(=O)Nc2ccc(C)cc2)c(N)n1
17,532,COc1ccc(C(=O)N2CCCn3cc(-c4ccccc4)nc32)cn1
18,696,COCCNc1c(-c2cccc(F)c2)nc2sc(C(N)=O)c(C)n12
19,780,Cc1nn(-c2ccc(C(=O)NCc3ccc4c(c3)OCO4)cc2)c2c1C(=O)CCC2

# The remaining lines, values behind:
row,SMILES,RP-LC retention time [s]
1,Cc1ccccc1CNC(=O)Cn1cccc1-c1nnc(C2CCC2)o1,920
2,CCn1ccc2sc(C)c(C(=O)O)c2c1=O,702
3,Cc1cc(C)cc(C(=O)N2CCCC2COc2ccc(C(=O)NC(C)C)cc2)c1 (stereo not drawn),922
4,O=C(NCCC1CCN(C(=O)Nc2cc(F)ccc2F)CC1)C1CCCC1,769
5,CCOc1cc(=O)n2c(c1C(=O)Nc1cc(OC)c(Cl)cc1OC)CCCC2,763
6,CCCN(C)C(=O)C1CCCN(c2cnc3nccnc3c2)C1 (stereo not drawn),655
7,O=C1CCCc2cc(S(=O)(=O)N3CCCC(C(=O)N4CCN(c5ccccc5)CC4)C3)ccc2N1 (stereo not drawn),788
8,CCCCC(=O)Nc1ccc(-c2cn3ccc(C)nc3n2)cc1,612
9,NC(=O)[C@@H](CCC(F)(F)F)N(Cc1ccc(-c2ncon2)cc1F)S(=O)(=O)c1ccc(Cl)cc1,1030
10,Cc1ccc(C(=O)N2C[C@@H]3C[C@H](NC(=O)c4cccs4)[C@H]2C3)cn1,581
11,COc1cccc2c1OC1(C)CC2C(S(=O)(=O)c2ccc(C(C)(C)C)cc2)C(=O)N1 (stereo not drawn),1010
12,COC[C@@H]1CN(C(=O)c2cc(C)oc2C)C[C@H]1c1nc(C)no1,748
13,O=C(NCc1ccccn1)C1CCN(S(=O)(=O)c2cc(C(=O)N3CCCC3)cs2)CC1,609
14,CCOc1ccc(-n2ccn3c(CCCC(=O)NCCc4c[nH]c5ccccc45)nnc3c2=O)cc1,761
15,CN(C)C/C=C/C(=O)Nc1ccc(C(=O)Nc2cccc(Nc3ncc(Cl)c(-c4c[nH]c5ccccc45)n3)c2)cc1,800
16,COC(=O)C1=CN(c2cc(Cl)ccc2OC)c2cc(F)ccc2S1(=O)=O,909
17,C(=N\n1cnnc1)/c1ccc2c(c1)CCC2,858
18,CC(C)(C)c1ccc(S(=O)(=O)NCC(=O)Nc2ccc3c(c2)OCO3)cc1,846
19,COc1ccc(NC(=O)c2c(O)c3cccnc3n(-c3cccc(F)c3)c2=O)cc1F,1210
20,CCCN(CC1CCOC1)S(=O)(=O)c1cccc(C(F)(F)F)c1 (stereo not drawn),1000
21,C[C@@H](NC(=O)c1ccccc1F)C(=O)NCc1cscn1,620
22,COc1ccc(CNC(=O)c2c(C)sc3ccn(CC(C)C)c(=O)c23)cc1OC,865
23,COc1cc(C2Oc3ccc(C4Oc5cc(O)cc(O)c5C(=O)C4O)cc3OC2CO)ccc1O (stereo not drawn),685
24,COCCOCc1nc(C2CCCN2S(=O)(=O)c2ccccc2)no1 (stereo not drawn),781
25,Cn1cnc2cc(CNC(=O)C3CCCC3)ccc21,586

row,SMILES,RP-LC retention time [s]
1,O=C(NCc1cc(-c2ccc3c(c2)OCO3)on1)c1cc(=O)c2ccccc2o1,758
2,COc1cc(NC(=O)Cn2cccc2-c2nnc(C3CC3)o2)cc(OC)c1,802
3,CCCNc1nc(-c2ccc(Br)cc2)cs1,1000
4,Cc1nnc2n1CCC(NC(=O)c1ccsc1)CC2 (stereo not drawn),559
5,O=C(NCc1ccccc1C(F)(F)F)c1cnc(-c2ccccc2)nc1-c1ccncc1,924
6,CCn1nccc1-c1cccc(-c2noc(CCS(=O)(=O)c3ccc(C)cc3)n2)c1,993
7,CC1CN(C(=O)CCC(=O)NCCCN2CCN(C3CCCCC3)CC2)c2ccccc2O1 (stereo not drawn),602
8,Cn1cc(-c2nc(C(=O)Nc3ccc(F)cc3)cs2)c2cccnc21,973
9,CCOC(=O)c1sc(NC(=O)c2cccs2)nc1C,892
10,CCCCN1CC(=O)N(c2ccc(OC)cc2)[C@@H]2CS(=O)(=O)C[C@@H]21,719
11,Cc1ccc(NC(=O)C(=O)c2ccc[nH]2)c(Br)c1,1060
12,O=C(Nc1cccc(OCc2nnc(-c3ccccc3)o2)c1)C1CCCC1,943
13,CCCNC(=O)C1CCCN(c2ccc(SCC(=O)Nc3cccc(F)c3)nn2)C1 (stereo not drawn),670
14,COCc1noc([C@@H]2CN(C(=O)C3CC=CC3)C[C@H]2C(N)=O)n1,609
15,CC(=O)Nc1cc(C(=O)NCc2nn(Cc3ccccc3)c3ccccc23)ccc1C,794
16,COC(=O)c1cc(S(=O)(=O)N2CCCC2C(=O)Nc2cccc(SC)c2)cn1C (stereo not drawn),909
17,COc1ccc(-n2c(=O)c(C(=O)Nc3cccc(F)c3)c(O)c3cccnc32)cc1,1250
18,CSc1ccc(-c2noc(Cc3nnc(-c4cccc(Br)c4)o3)n2)cc1,1170
19,COc1ccccc1/C=C/C(=O)/C=C/c1ccccc1O,772
20,O=C(CCc1cccc2[nH]ccc12)NCc1ccc(N2CCCCC2)cc1,612
21,COc1ccc(-c2cc(C(=O)NC3CCCCC3)nn2C2CCS(=O)(=O)C2)cc1 (stereo not drawn),885
22,COc1ccc(OC)c(NC(=O)C2CCN(S(=O)(=O)c3ccc4c(c3)sc(=O)n4C)CC2)c1,840
23,Cc1cc(C)c(CNC(=O)C2CCCN(c3cnc4nccnc4c3)C2)c(C)c1 (stereo not drawn),819
24,COc1ccc(Cc2nn3c(CSc4ccccc4)nnc3s2)cc1,937
25,CC(=O)c1ccc(OC(=O)c2cc3c(C)nn(-c4ccccc4)c3s2)cc1,1310
